Assay: xn = mol fraction of the nth substance listed

COC(=O)OC + CO
Conditions | viscosity [mPa·s]
293.15 K, 101 kPa, x1 = 0.0381 | 0.5792
293.15 K, 101 kPa, x1 = 0.0818 | 0.5612
293.15 K, 101 kPa, x1 = 0.1346 | 0.5507
293.15 K, 101 kPa, x1 = 0.1927 | 0.5478
293.15 K, 101 kPa, x1 = 0.2626 | 0.5418
293.15 K, 101 kPa, x1 = 0.348 | 0.536
293.15 K, 101 kPa, x1 = 0.4533 | 0.5379
293.15 K, 101 kPa, x1 = 0.5871 | 0.548
293.15 K, 101 kPa, x1 = 0.7618 | 0.564
293.15 K, 101.3 kPa, x1 = 0.0537 | 0.567
293.15 K, 101.3 kPa, x1 = 0.0996 | 0.551
293.15 K, 101.3 kPa, x1 = 0.2058 | 0.536
293.15 K, 101.3 kPa, x1 = 0.3135 | 0.533
293.15 K, 101.3 kPa, x1 = 0.41 | 0.535
293.15 K, 101.3 kPa, x1 = 0.5086 | 0.54
293.15 K, 101.3 kPa, x1 = 0.6104 | 0.545
293.15 K, 101.3 kPa, x1 = 0.7229 | 0.554
293.15 K, 101.3 kPa, x1 = 0.8338 | 0.57
293.15 K, 101.3 kPa, x1 = 0.9067 | 0.586
293.15 K, 101.3 kPa, x1 = 0.9509 | 0.6
298.15 K, 101 kPa, x1 = 0.0381 | 0.5373
298.15 K, 101 kPa, x1 = 0.0818 | 0.5292
298.15 K, 101 kPa, x1 = 0.1346 | 0.5164
298.15 K, 101 kPa, x1 = 0.1927 | 0.5119
298.15 K, 101 kPa, x1 = 0.2626 | 0.5061
298.15 K, 101 kPa, x1 = 0.348 | 0.503
298.15 K, 101 kPa, x1 = 0.4533 | 0.5058
298.15 K, 101 kPa, x1 = 0.5871 | 0.5227
298.15 K, 101 kPa, x1 = 0.7618 | 0.5374
298.15 K, 101.3 kPa, x1 = 0.0506 | 0.531
298.15 K, 101.3 kPa, x1 = 0.1042 | 0.518
298.15 K, 101.3 kPa, x1 = 0.2079 | 0.502
298.15 K, 101.3 kPa, x1 = 0.3011 | 0.498
298.15 K, 101.3 kPa, x1 = 0.3963 | 0.498
298.15 K, 101.3 kPa, x1 = 0.4931 | 0.504
298.15 K, 101.3 kPa, x1 = 0.589 | 0.509
298.15 K, 101.3 kPa, x1 = 0.6927 | 0.517
298.15 K, 101.3 kPa, x1 = 0.8137 | 0.53
298.15 K, 101.3 kPa, x1 = 0.8997 | 0.548
298.15 K, 101.3 kPa, x1 = 0.9575 | 0.566
298.15 K, 101.33 kPa, x1 = 0.0989 | 0.482
298.15 K, 101.33 kPa, x1 = 0.2009 | 0.462
298.15 K, 101.33 kPa, x1 = 0.3008 | 0.458
298.15 K, 101.33 kPa, x1 = 0.4008 | 0.457
298.15 K, 101.33 kPa, x1 = 0.5 | 0.462
298.15 K, 101.33 kPa, x1 = 0.6002 | 0.468
298.15 K, 101.33 kPa, x1 = 0.7016 | 0.474
298.15 K, 101.33 kPa, x1 = 0.8015 | 0.496
298.15 K, 101.33 kPa, x1 = 0.9028 | 0.511
303.15 K, 101 kPa, x1 = 0.0381 | 0.5011
303.15 K, 101 kPa, x1 = 0.0818 | 0.4896
303.15 K, 101 kPa, x1 = 0.1346 | 0.4814
303.15 K, 101 kPa, x1 = 0.1927 | 0.479
303.15 K, 101 kPa, x1 = 0.2626 | 0.4723
303.15 K, 101 kPa, x1 = 0.348 | 0.474
303.15 K, 101 kPa, x1 = 0.4533 | 0.473
303.15 K, 101 kPa, x1 = 0.5871 | 0.4884
303.15 K, 101 kPa, x1 = 0.7618 | 0.5087
303.15 K, 101.3 kPa, x1 = 0.026 | 0.503
303.15 K, 101.3 kPa, x1 = 0.0707 | 0.489
303.15 K, 101.3 kPa, x1 = 0.1832 | 0.469
303.15 K, 101.3 kPa, x1 = 0.2839 | 0.467
303.15 K, 101.3 kPa, x1 = 0.3823 | 0.468
303.15 K, 101.3 kPa, x1 = 0.4869 | 0.472
303.15 K, 101.3 kPa, x1 = 0.5847 | 0.475
303.15 K, 101.33 kPa, x1 = 0.0989 | 0.443
303.15 K, 101.33 kPa, x1 = 0.2009 | 0.432
303.15 K, 101.33 kPa, x1 = 0.3008 | 0.427
303.15 K, 101.33 kPa, x1 = 0.4008 | 0.429
303.15 K, 101.33 kPa, x1 = 0.6002 | 0.439
303.15 K, 101.33 kPa, x1 = 0.7016 | 0.447
303.15 K, 101.33 kPa, x1 = 0.8015 | 0.459
303.15 K, 101.33 kPa, x1 = 0.9028 | 0.48
308.15 K, 101.33 kPa, x1 = 0.0989 | 0.415
308.15 K, 101.33 kPa, x1 = 0.2009 | 0.406
308.15 K, 101.33 kPa, x1 = 0.3008 | 0.404
308.15 K, 101.33 kPa, x1 = 0.4008 | 0.403
308.15 K, 101.33 kPa, x1 = 0.5 | 0.406
308.15 K, 101.33 kPa, x1 = 0.6002 | 0.421
308.15 K, 101.33 kPa, x1 = 0.7016 | 0.419
308.15 K, 101.33 kPa, x1 = 0.8015 | 0.433
308.15 K, 101.33 kPa, x1 = 0.9028 | 0.456
313.15 K, 101 kPa, x1 = 0.0381 | 0.4382
313.15 K, 101 kPa, x1 = 0.0818 | 0.4297
313.15 K, 101 kPa, x1 = 0.1346 | 0.4193
313.15 K, 101 kPa, x1 = 0.1927 | 0.4192
313.15 K, 101 kPa, x1 = 0.2626 | 0.4166
313.15 K, 101 kPa, x1 = 0.348 | 0.4177
313.15 K, 101 kPa, x1 = 0.4533 | 0.4181
313.15 K, 101 kPa, x1 = 0.5871 | 0.4314
313.15 K, 101 kPa, x1 = 0.7618 | 0.4469
323.15 K, 101 kPa, x1 = 0.0381 | 0.3851
323.15 K, 101 kPa, x1 = 0.0818 | 0.3724
323.15 K, 101 kPa, x1 = 0.1346 | 0.3704
323.15 K, 101 kPa, x1 = 0.1927 | 0.3692
323.15 K, 101 kPa, x1 = 0.2626 | 0.3685
323.15 K, 101 kPa, x1 = 0.348 | 0.3693
323.15 K, 101 kPa, x1 = 0.4533 | 0.3745
323.15 K, 101 kPa, x1 = 0.5871 | 0.3867
323.15 K, 101 kPa, x1 = 0.7618 | 0.3997

From the CheMixHub viscosity set
